The results in this text go back to US20040063787A1, “Vaginal health products” (priority 2002, published 2004).

“Also recorded” adds a separate entry of the source.

What all share (assay type): cell-based, human
One data set relates to ME-180 cells. Put plainly: Toxicity & proliferation experiments, ME-180 cell counting. To be noted: for effect on ME-180 cell growth: 1 nM, 10 nM, and 100 nM; for ME-180 cell number / cell growth versus no retinoic acid (negative control): 1 μM or 10 μM (micromolar concentrations). On the procedure:
Cell Lines. Human cervical epithelial cells (ME-180, ATCC) were propagated in culture at 37° C. in a 5% CO2 atmosphere in McCoy's 5A media (Invitrogen) with 10% heat-inactivated fetal bovine serum (Invitrogen). All trans-, 9-cis-, and 13-cis-retinoic acids were purchased from ICN Biomedicals. Retinoic acid stock solutions were made up in DMSO.
Toxicity & Proliferation Experiments. Cellular toxicity/proliferation experiments were performed by first washing the ME-180 cells with HBSS, and adding 3 mL of trypsin (0.25%) with EDTA to the T75 flask for 15 minutes. ME-180 cells in trypsin were added to 7 mL of McCoy's 5A media with 10% FBS. ME-180 cells were centrifuged for 5 minutes, and the supernatant was removed. ME-180 cells were resuspended in 10 mL of McCoy's 5A media with 10% FBS for counting. ME-180 cells were centrifuged for 5 minutes, and the supernatant was removed. ME-180 cells were resuspended at 6×10^4 cells per mL (62 mL total volume). One milliliter was added to each of 60 wells in a total of three 24-well plates. ME-180 cells were allowed to adhere to the wells overnight. The media was then removed from the ME-180 cells, and the cells were washed one time with 1 mL of HBSS. One mL of McCoy's 5A media with 10% FBS was added in duplicate on each plate containing the retinoic acids in various concentrations (0-10 μM). ME-180 cells in each plate were counted on day 1, 2, or 3 after the addition of the retinoic acid-containing media.
Cell counting. Media was removed from the ME-180 cells, and the cells were washed one time with 1 mL of HBSS. Trypsin was added (150 μL) to each well for ˜15 minutes to remove cells. One mL of McCoy's 5A media with 10% FBS was added to each well. ME-180 cells were mixed thoroughly and counted using a hemocytometer.
Cell Proliferation of ME-180 Cells. ME-180 cells were incubated with vitamin A derivatives for a period of up to 3 days. ME-180 cells were counted on each day.

The next data set concerns P2Y2 receptor gene. As to the kind of experiment: RT-PCR expression assay of P2Y2 in ME-180 cells. To be noted: 100 nM. On the procedure:
(§1) RNA Extraction from ME-180 cells. ME-180 cells were plated at 2×10^5 cells per T25 flask (5 mL total volume) and were allowed to propagate for four days. On day four, the media was removed. Five mL of McCoy's 5A media with 10% FBS containing 0, 10 nM, 100 nM, or 1 μM trans-retinoic acid were added to ME-180 cells in duplicate. ME-180 cells were incubated with these solutions for 4, 8, 16, or 24 hours. The media was removed, and 700 μL of lysis buffer was added to the flasks. The cells were scraped off of the flask with a cell scraper. The RNA was isolated using the Ambion RNAqueous kit according to the manufacturer's instructions. Precipitated RNA was resuspended in DEPC-treated water with 1 μL of RNase inhibitor. Total cervical RNA used as a control was purchased from Ambion, Inc.
(§2) Reverse Transcripton of RNA. Approximately 7 μL of RNA was incubated with 3 μL of primer at 80° C. for 10 minutes then immediately placed on ice. A master mix containing 4 μL DEPC water, 4 μL 5× reaction buffer, 1 μL dNTPs, 1 μL of RNase inhibitor, and 1 μL of reverse transcriptase was made for the reactions. Ten μL of master mix was added to the RNA/primer solution and placed at 42° C. for 2 hours. The resulting cDNA was incubated with 3.5 μL of NaOH solution at 70° C. for 10 minutes to hydrolyze the remaining RNA. Five μL of 0.5M Tris/EDTA was added to neutralize the solution. […]

In data set [1] the test system is estrogen receptor alpha (ER-α) gene. Put plainly: RT-PCR expression assay of ER-α in ME-180 cells. To be noted: 100 nM, no serum, 4, 8, and 16 hours, FIG. 4 lanes 4-6, listed as vitamin A. On the procedure: as §1, with “Five mL of McCoy's 5A media with 10% FBS containing 0, 10 nM, 100 nM, or 1 μM trans-retinoic acid were added to ME-180 cells in duplicate.” left out
as §2, with “solution. To precipitate the cDNA, 125 μL of 3M NH4OAc, 5 μL of linear polyacrylamide, and 700 μL of absolute ethanol were added.” for “solution.”

Data set [2] concerns vascular endothelial growth factor (VEGF). Put plainly: RT-PCR expression assay of VEGF in ME-180 cells. To be noted: 100 nM, 4, 8, and 16 hours, FIG. 5. The protocol: as §1, §2
The next data set relates to mucin-4 (MUC-4). As to the kind of experiment: RT-PCR expression assay of mucin-4 in ME-180 cells. To be noted: 100 nM, absence of serum. On the procedure: as §1, with “Five mL of McCoy's 5A media with 10% FBS containing 0, 10 nM, 100 nM, or 1 μM trans-retinoic acid were added to ME-180 cells in duplicate.” left out
as §2, with “solution. To precipitate the cDNA, 125 μL of 3M NH4OAc, 5 μL of linear polyacrylamide, and 700 μL of absolute ethanol were added.” for “solution.”

For `CC1=C(/C=C/C(C)=C\C=C\C(C)=C\C(=O)O)C(C)(C)CCC1` [9-cis-retinoic acid], in the data set with ME-180 cells (up to 3 days, FIG. 1), the “effect on ME-180 cell growth” value is on record as “little effect on cell growth”.

With `CC1=C(/C=C/C(C)=C/C=C/C(C)=C\C(=O)O)C(C)(C)CCC1` [13-cis-retinoic acid], the “effect on ME-180 cell growth” value in the data set on ME-180 cells (up to 3 days, FIG. 1) is “little effect on cell growth”. Also, the “toxicity to ME-180 cells” value in the data set on ME-180 cells (micromolar concentrations) is “toxic”. In addition, the “ME-180 cell growth versus negative control” value in the data set on ME-180 cells (micromolar concentrations, two days, FIG. 2) is given as “did not grow as well as the negative control”.

Consider `CC1=C(/C=C/C(C)=C/C=C/C(C)=C/C(=O)O)C(C)(C)CCC1` [trans-retinoic acid], for which the “toxicity (overall conclusion of the experiments)” value in the data set with ME-180 cells is recorded as “nontoxic”. Moreover, the “growth compared with cells exposed to other agents or to no agents” value with ME-180 cells (1 nM to 100 nM, up to 3 days, FIG. 1) is “growing slightly faster”. The “effect on ME-180 cell growth” value in the data set with ME-180 cells (up to 3 days, FIG. 1) was “little effect on cell growth”. Further, the “ME-180 cell number / cell growth versus no retinoic acid (negative control)” value is given as “more cells were present” in the data set with ME-180 cells (two days, FIG. 2) and “increases cervical cell growth” in the data set on ME-180 cells (two days, FIG. 2, listed as Vitamin A). In addition, the “P2Y2 expression (PCR product)” value was “increase in P2Y2 expression” in the data set with P2Y2 receptor gene (in the absence of serum, FIG. 3 lanes 8-11) and “increase in P2Y2 expression” with P2Y2 receptor gene (in the presence of serum, FIG. 3 lanes 4-6). In addition, in data set [1], the “ER-α gene expression (PCR product)” value was “the ER-α gene was expressed; also recorded: increase in ER-α expression”. Also, the “VEGF expression (PCR product)” value in data set [2] is “increased the expression”. Besides, the “MUC-4 expression (PCR product)” value in the data set with mucin-4 (MUC-4) (4 hours or 8 hours, FIG. 6 lanes 4 and 5) was “detectable”; with mucin-4 (MUC-4) (16 hours, FIG. 6 lane 6), “decreases but is still detectable”.
